Measurements reported in patent publication US4443436A, “C-20-Modified macrolide derivatives of the macrolide antibiotics tylosin, desmycosin, macrocin, and lactenocin” (Eli Lilly and Company, priority 1982, dated 1984).
≈ marks a conversion by molar mass, not a printed value. Where two headings read alike, the source gives them in different places.

Columns and labels:
[1] = system: Staphylococcus aureus X1.1; test: MIC, standard agar-dilution assay, Staphylococcus aureus X1.1; type: cell-based
[2] = system: Staphylococcus aureus V41; test: MIC, standard agar-dilution assay, Staphylococcus aureus V41; type: cell-based
[3] = system: Staphylococcus aureus X400; test: MIC, standard agar-dilution assay, Staphylococcus aureus X400; type: cell-based
[4] = system: Staphylococcus aureus S13E; test: MIC, standard agar-dilution assay, Staphylococcus aureus S13E; type: cell-based
[5] = system: Staphylococcus epidermidis EPI1; test: MIC, standard agar-dilution assay, Staphylococcus epidermidis EPI1; type: cell-based
[6] = system: Staphylococcus epidermidis EPI2; test: MIC, standard agar-dilution assay, Staphylococcus epidermidis EPI2; type: cell-based
[7] = system: Streptococcus pyogenes C203; test: MIC, standard agar-dilution assay, Streptococcus pyogenes C203; type: cell-based
[8] = system: Streptococcus pneumoniae Park I; test: microbe, parasite or virus in culture; type: cell-based; settings: Streptococcus pneumoniae Park I, agar dilution
[9] = system: Streptococcus Group D X66; test: MIC, standard agar-dilution assay, Streptococcus Group D X66; type: cell-based; settings: Streptococcus Group D X66, agar dilution
[10] = system: Streptococcus Group 9960; test: MIC, standard agar-dilution assay, Streptococcus Group 9960; type: cell-based; settings: Streptococcus Group 9960, agar dilution
[11] = system: Haemophilus influenzae Holt; test: MIC, standard agar-dilution assay, Haemophilus influenzae Holt; type: cell-based; settings: Haemophilus influenzae Holt, ampicillin-sensitive strain
[12] = system: Haemophilus influenzae R252; test: MIC, standard agar-dilution assay, Haemophilus influenzae R252; type: cell-based; settings: Haemophilus influenzae R252, ampicillin-resistant strain
[13] = system: Staphylococcus aureus; test: MIC, broth-dilution microtiter test, Staphylococcus aureus; type: cell-based
Excerpt: (§1) The MIC's in Table X were obtained using conventional broth-dilution microtiter tests.

[14] = system: Streptococcus bovis 80; test: MIC, broth-dilution microtiter test, Streptococcus bovis 80; type: cell-based
Excerpt: as §1

[15] = system: Pasteurella multocida 17E; test: MIC, broth-dilution microtiter test, Pasteurella multocida 17E; type: cell-based
Excerpt: as §1

[16] = system: Pasteurella multocida 60A; test: MIC, broth-dilution microtiter test, Pasteurella multocida 60A; type: cell-based; settings: Pasteurella multocida 60A, avian isolate, broth-dilution microtiter
Excerpt: as §1

[17] = system: Pasteurella hemolytica 22C; test: MIC, broth-dilution microtiter test, Pasteurella hemolytica 22C; type: cell-based; settings: Pasteurella hemolytica 22C, broth-dilution microtiter
Excerpt: as §1

[18] = system: Mycoplasma gallisepticum; test: MIC, broth-dilution microtiter test, Mycoplasma gallisepticum; type: cell-based
Excerpt: as §1

[19] = system: Mycoplasma synoviae; test: MIC, broth-dilution microtiter test, Mycoplasma synoviae; type: cell-based
Excerpt: as §1

[20] = system: Mycoplasma hyorhinis; test: MIC, broth-dilution microtiter test, Mycoplasma hyorhinis; type: cell-based
Excerpt: as §1

[21] = system: Streptococcus pyogenes C203; test: In vivo protection of mice experimentally infected with S. pyogenes C203; settings: mice, doses given 1 and 4 hours post-infection
Experimental: The C-20 modified derivatives of this invention have shown in vivo antimicrobial activity against experimentally-induced infections in laboratory animals. When two doses of test compound were administered to mice experimentally infected with S. pyogenes C203, the activity observed was measured as an ED50 value [effective dose in mg/kg to protect 50% of the test animals: see Warren Wick, et al., J. Bacteriol. 81, 233-235 (1961)].

[22] = Staphylococcus aureus X1.1, agar dilution
[23] = Staphylococcus aureus V41, penicillin-resistant strain, agar dilution
[24] = Staphylococcus aureus X400, methicillin-resistant strain, agar dilution
[25] = Staphylococcus aureus S13E, agar dilution
[26] = Staphylococcus epidermidis EPI1, agar dilution
[27] = Staphylococcus epidermidis EPI2, agar dilution
[28] = Streptococcus pyogenes C203, agar dilution
[29] = Streptococcus bovis 80, broth-dilution microtiter
[30] = Pasteurella multocida 17E, bovine isolate, broth-dilution microtiter
[31] = Mycoplasma gallisepticum, broth-dilution microtiter
[32] = Mycoplasma synoviae, broth-dilution microtiter
[33] = Mycoplasma hyorhinis, broth-dilution microtiter

SMILES: CCC1OC(=O)CC(O)C(C)C(OC2OC(C)C(O)C(N(C)C)C2O)C(CCOc2nnc(-c3ccccc3)c(-c3ccccc3)n2)CC(C)C(=O)C=CC(C)=CC1COC1OC(C)C(O)C(OC)C1OC (stereo not drawn) [Compound 50, 20-DH-20-O-(5,6-Diphenyl-1,2,4-triazin-3-yl)desmycosin]
- MIC [1, 22]: 0.5 µg/mL (≈ 0.497 µM)
- MIC [2, 23]: 0.5 µg/mL (≈ 0.497 µM)
- MIC [3, 24]: 1 µg/mL (≈ 0.995 µM)
- MIC [4, 25]: 0.5 µg/mL (≈ 0.497 µM)
- MIC [5, 26]: 0.5 µg/mL (≈ 0.497 µM)
- MIC [6, 27]: 0.5 µg/mL (≈ 0.497 µM)
- MIC [7, 28]: 0.5 µg/mL (≈ 0.497 µM)
- MIC [8]: 0.5 µg/mL (≈ 0.497 µM)
- MIC [9]: 4 µg/mL (≈ 3.98 µM)
- MIC [10]: 4 µg/mL (≈ 3.98 µM)
- MIC ([11]; agar dilution): 64 µg/mL (≈ 63.7 µM)
- MIC ([12]; agar dilution): 64 µg/mL (≈ 63.7 µM)
- MIC ([13]; broth-dilution microtiter): 1.56 µg/mL (≈ 1.55 µM)
- MIC [14, 29]: 3.12 µg/mL (≈ 3.1 µM)
- MIC [15, 30]: 25 µg/mL (≈ 24.9 µM)
- MIC [16]: 25 µg/mL (≈ 24.9 µM)
- MIC [17]: -- (Not active at 50 mcg/ml, the highest level tested)
- MIC [18, 31]: ≤ 0.048 µg/mL
- MIC [19, 32]: 0.39 µg/mL (≈ 0.388 µM)
- MIC [20, 33]: 12.5 µg/mL (≈ 12.4 µM)
- ED50, Oral ([21]; oral): > 50 mg/kg × 2
- ED50, Subcutaneous [21]: > 10 mg/kg × 2

SMILES: CCC1OC(=O)CC(O)C(C)C(OC2OC(C)C(O)C(N(C)C)C2O)C(CCOc2ncnc3ccccc23)CC(C)C(=O)C=CC(C)=CC1COC1OC(C)C(O)C(OC)C1OC (stereo not drawn) [Compound 51, 20-DH-20-O-(Quinazolin-4-yl)desmycosin]
- MIC [1, 22]: 0.25 µg/mL (≈ 0.277 µM)
- MIC [2, 23]: 0.25 µg/mL (≈ 0.277 µM)
- MIC [3, 24]: 0.5 µg/mL (≈ 0.554 µM)
- MIC [4, 25]: 0.25 µg/mL (≈ 0.277 µM)
- MIC [5, 26]: 0.25 µg/mL (≈ 0.277 µM)
- MIC [6, 27]: 0.12 µg/mL (≈ 0.133 µM)
- MIC [7, 28]: 0.5 µg/mL (≈ 0.554 µM)
- MIC [8]: 0.5 µg/mL (≈ 0.554 µM)
- MIC [9]: 4 µg/mL (≈ 4.43 µM)
- MIC [10]: 4 µg/mL (≈ 4.43 µM)
- MIC ([11]; agar dilution): 16 µg/mL (≈ 17.7 µM)
- MIC ([12]; agar dilution): 32 µg/mL (≈ 35.5 µM)
- MIC ([13]; broth-dilution microtiter): 0.78 µg/mL (≈ 0.865 µM)
- MIC [14, 29]: 0.78 µg/mL (≈ 0.865 µM)
- MIC [15, 30]: 12.5 µg/mL (≈ 13.9 µM)
- MIC [16]: 12.5 µg/mL (≈ 13.9 µM)
- MIC [17]: -- (Not active at 50 mcg/ml, the highest level tested)
- MIC [18, 31]: ≤ 0.048 µg/mL
- MIC [19, 32]: 0.39 µg/mL (≈ 0.432 µM)
- MIC [20, 33]: 12.5 µg/mL (≈ 13.9 µM)
- ED50, Oral ([21]; oral): > 50 mg/kg × 2
- ED50, Subcutaneous [21]: 5.4 mg/kg × 2

SMILES: CCC1OC(=O)CC(O)C(C)C(OC2OC(C)C(OC3CC(C)(O)C(O)C(C)O3)C(N(C)C)C2O)C(C)CC(C)C(=O)C=CC(C)=CC1COC1OC(C)C(O)C(O)C1OC (stereo not drawn) [Compound 54, 20-Deformylmacrocin]
- MIC ([1]; Staphylococcus aureus, X1.1): 2 µg/mL (≈ 2.29 µM)
- MIC ([2]; Staphylococcus aureus, V41): 1 µg/mL (≈ 1.14 µM)
- MIC ([3]; Staphylococcus aureus, X400): 2 µg/mL (≈ 2.29 µM)
- MIC ([4]; Staphylococcus aureus, S13E): 2 µg/mL (≈ 2.29 µM)
- MIC ([5]; Staphylococcus epidermidis, EPI1): 2 µg/mL (≈ 2.29 µM)
- MIC ([6]; Staphylococcus epidermidis, EPI2): 2 µg/mL (≈ 2.29 µM)
- MIC ([7]; Streptococcus pyogenes, C203): 2 µg/mL (≈ 2.29 µM)
- MIC ([8]; read-out: MIC): 64 µg/mL (≈ 73.2 µM)
- MIC ([9]; read-out: MIC): 128 µg/mL (≈ 146 µM)
- MIC ([10]; GROUP9960, read-out: MIC): 28 µg/mL (≈ 32 µM)
- MIC ([11]; read-out: MIC): > 128 µg/mL
- MIC ([12]; read-out: MIC): > 128 µg/mL
- MIC [13]: 3.12 µg/mL (≈ 3.57 µM)
- MIC ([14]; Streptococcus equinus, 80): 6.25 µg/mL (≈ 7.15 µM)
- MIC ([15]; Pasteurella multocida, 17E): > 50 µg/mL
- MIC ([16]; read-out: MIC): > 50 µg/mL
- MIC ([17]; read-out: MIC): > 50 µg/mL
- MIC ([18]; Mycoplasmoides gallisepticum): 0.78 µg/mL (≈ 0.892 µM)
- MIC ([19]; Mycoplasmopsis synoviae): 1.56 µg/mL (≈ 1.78 µM)
- MIC ([20]; Mycoplasma): 25 µg/mL (≈ 28.6 µM)
- ED50 ([21]; Streptococcus pyogenes, C203, oral, read-out: ED50, Oral): 31 mg/kg

SMILES: CCC1OC(=O)CC(O)C(C)C(OC2OC(C)CC(N(C)C)C2O)C(CCOc2ccccc2)CC(C)C(=O)C=CC(C)=CC1COC1OC(C)C(O)C(OC)C1OC (stereo not drawn) [Compound 70, 20-DH-20-O-Phenyl-4'-deoxydesmycosin]
- MIC [1, 22]: 0.25 µg/mL (≈ 0.3 µM)
- MIC [2, 23]: 0.25 µg/mL (≈ 0.3 µM)
- MIC [3, 24]: 0.25 µg/mL (≈ 0.3 µM)
- MIC [4, 25]: 0.25 µg/mL (≈ 0.3 µM)
- MIC [5, 26]: 0.25 µg/mL (≈ 0.3 µM)
- MIC [6, 27]: 0.12 µg/mL (≈ 0.144 µM)
- MIC [7, 28]: 0.5 µg/mL (≈ 0.599 µM)
- MIC [8]: 0.5 µg/mL (≈ 0.599 µM)
- MIC [9]: 2 µg/mL (≈ 2.4 µM)
- MIC [10]: 4 µg/mL (≈ 4.8 µM)
- MIC ([11]; agar dilution): 4 µg/mL (≈ 4.8 µM)
- MIC ([12]; agar dilution): 4 µg/mL (≈ 4.8 µM)
- MIC ([13]; broth-dilution microtiter): 0.78 µg/mL (≈ 0.935 µM)
- MIC [14, 29]: 6.25 µg/mL (≈ 7.49 µM)
- MIC [15, 30]: 12.5 µg/mL (≈ 15 µM)
- MIC [16]: 12.5 µg/mL (≈ 15 µM)
- MIC [17]: 50 µg/mL (≈ 59.9 µM)
- MIC [18, 31]: 0.39 µg/mL (≈ 0.468 µM)
- MIC [19, 32]: 0.78 µg/mL (≈ 0.935 µM)
- MIC [20, 33]: 12.5 µg/mL (≈ 15 µM)
- ED50, Oral ([21]; oral): 7 mg/kg × 2
- ED50, Subcutaneous [21]: 3.1 mg/kg × 2
